Measured values: ChEMBL document CHEMBL5038667, “Discovery of an Amino Acid-Modified Near-Infrared Aza-BODIPY Photosensitizer as an Immune Initiator for Potent Photodynamic Therapy in Melanoma” (J Med Chem, 2022)
In brackets after ≈: the same amount, converted by molar mass. Activity calls are given as the source filed them. The calls are words filed in the database; no cut-off is given here.

Key:
[1] = system: B16-F10; test: Induction of apoptosis in mouse B16-F10 cells assessed as late apoptotic cells at 10 nM incubated for 16 hrs followed by irradiated with 54 J/cm^2 light dose by Annexin V-FITC/PI based flow cytometric analysis (reference value: 2.32 %); type: functional
[2] = system: B16-F10; test: Induction of apoptosis in mouse B16-F10 cells assessed as late apoptotic cells at 250 nM incubated for 16 hrs followed by irradiated with 54 J/cm^2 light dose by Annexin V-FITC/PI based flow cytometric analysis (reference value: 2.32 %); type: functional
[3] = system: B16-F10; test: Antitumor immunity against mouse B16-F10 cells assessed as release of HMGB1 at 250 nM incubated for 16 hrs followed by irradiated with 54 J/cm^2 light dose and further incubated for 6 hrs by Alexa Fluor 488/Hoechst 33342 staining based confocal laser scanning microscopy; type: functional, cell-based
[4] = system: B16-F10; test: Induction of apoptosis in mouse B16-F10 cells assessed as viable cells at 50 nM incubated for 16 hrs followed by irradiated with 54 J/cm^2 of light dose by Annexin V-FITC/PI based flow cytometric analysis (reference value: 87.45 %); type: functional; details: B16-F10, light or radiation study, read-out: Activity
[5] = Drug localisation in lysosome of mouse B16-F10 cells at 5 uM incubated for 16 hrs by Lyso Tracker Green based confocal laser scanning microscopy analysis; type: ADME, subcellular; details: b16-f10, 16 h
[6] = Aqueous solubility in PBS; type: physicochemical; details: buffer
[7] = Biodistribution in heart of C57BL/6 mouse harboring mouse B16-F10 cells at 2 mg/kg, iv measured after 12 hrs by flourescence imaging assay; type: ADME, organism-based; details: in vivo
[8] = system: A-375; test: Induction of ROS generation in human A-375 cells assessed as cells with high intracellular ROS levels at 20 nM incubated for 16 hrs followed by irradiated with 54 J/cm2 light dose by H2DCFDA fluorescent probe based flow cytometry method (reference value: 2.09 %); type: functional
[9] = system: B16-F10; test: Induction of apoptosis in mouse B16-F10 cells assessed as early apoptotic cells at 250 nM incubated for 16 hrs followed by irradiated with 54 J/cm^2 light dose by Annexin V-FITC/PI based flow cytometric analysis (reference value: 6.48 %); type: functional
[10] = system: B16-F10; test: Antitumor activity against mouse B16-F10 cells implanted in C57BL/6 mouse assessed as tumor destruction at 2 mg/kg, iv irradiated with 60 J/cm^2 laser light measured after 14 days by hematoxylin and eosin based microscopic analysis; type: functional, organism-based; details: time 14.0 day
[11] = system: B16-F10; test: Induction of apoptosis in mouse B16-F10 cells assessed as late apoptotic cells at 50 nM incubated for 16 hrs followed by irradiated with 54 J/cm^2 light dose by Annexin V-FITC/PI based flow cytometric analysis (reference value: 2.32 %); type: functional
[12] = system: B16-F10; test: Antitumor activity against mouse B16-F10 cells implanted in C57BL/6 mouse assessed as inhibition of tumor growth at 2 mg/kg, iv irradiated with 60 J/cm^2 laser light by IVIS imaging analysis measured upto 48 hrs; type: functional, organism-based; details: time hrs <=48
[13] = Biodistribution in lungs of C57BL/6 mouse harboring mouse B16-F10 cells at 2 mg/kg, iv measured after 12 hrs by flourescence imaging assay; type: ADME, organism-based, Lung; details: in vivo
[14] = Phototoxicity against human HeLa cells assessed as reduction in cell viability incubated for 16 hrs followed by irradiated with 54 J/cm^2 of light dose and further incubated for 24 hrs by CCK-8 assay; type: toxicity, cell-based; details: light or radiation study
[15] = Drug elimination in C57BL/6 mouse harboring B16-F10 cells at 2 mg/kg, iv measured after 48 hrs by fluorescence imaging assay; type: ADME, organism-based; details: in vivo
[16] = system: B16-F10; test: Induction of apoptosis in mouse B16-F10 cells assessed as viable cells at 250 nM incubated for 16 hrs followed by irradiated with 54 J/cm^2 of light dose by Annexin V-FITC/PI based flow cytometric analysis (reference value: 87.45 %); type: functional; details: B16-F10, light or radiation study, read-out: Activity
[17] = system: B16-F10; test: Induction of ROS generation in mouse B16-F10 cells assessed as cells with high intracellular ROS levels at 10 nM incubated for 16 hrs followed by irradiated with 54 J/cm^2 of light dose by H2DCFDA fluorescent probe based flow cytometry method (reference value: 1.96 %); type: functional
[18] = system: B16-F10; test: Photodynamic therapy in mouse B16-F10 cells implanted in C57BL/6 mouse model assessed as increase infiltration of CD4+ T cells measured after 3 days by immunofluorescence staining based analysis; type: functional, cell-based; details: time 3.0 day
[19] = system: B16-F10; test: Induction of apoptosis in mouse B16-F10 cells assessed as early apoptotic cells at 10 nM incubated for 16 hrs followed by irradiated with 54 J/cm^2 light dose by Annexin V-FITC/PI based flow cytometric analysis (reference value: 6.48 %); type: functional
[20] = system: B16-F10; test: Antitumor immunity against mouse B16-F10 cells assessed as surface translocation of CRT at 50 nM incubated for 16 hrs followed by irradiated with 54 J/cm^2 light dose and further incubated for 6 hrs by Alexa Fluor 488/Hoechst 33342 staining based confocal laser scanning microscopy; type: functional, cell-based
[21] = system: B16-F10; test: Photodynamic therapy in mouse B16-F10 cells implanted in C57BL/6 mouse model assessed as increase infiltration of CD8+ T cells measured after 3 days by immunofluorescence staining based analysis; type: functional, cell-based; details: time 3.0 day
[22] = Lipophilicity, logP of compound; type: physicochemical; details: octanol/water
[23] = system: A-375; test: Dark toxicity against human A-375 cells assessed as reduction in cell viability incubated for 16 hrs by CCK-8 assay; type: functional, cell-based; details: A-375, 16 h
[24] = system: B16-F10; test: Induction of apoptosis in mouse B16-F10 cells assessed as viable cells at 10 nM incubated for 16 hrs followed by irradiated with 54 J/cm^2 of light dose by Annexin V-FITC/PI based flow cytometric analysis (reference value: 87.45 %); type: functional; details: B16-F10, light or radiation study, read-out: Activity
[25] = system: B16-F10; test: Photodynamic therapy in mouse B16-F10 cells implanted in C57BL/6 mouse model assessed as increase in infiltration of CD4+ T cells by APC/FITC/PE staining based flow cytometric analysis (reference value: 4.85 %); type: functional
[26] = system: A-375; test: Induction of ROS generation in human A-375 cells assessed as cells with high intracellular ROS levels at 100 nM incubated for 16 hrs followed by irradiated with 54 J/cm2 light dose by H2DCFDA fluorescent probe based flow cytometry method (reference value: 2.09 %); type: functional

- Drug uptake [5]: Active
- solubility [6]: 165 µM (≈ 144 µg/mL)
- Drug uptake [7]: Active
- Drug uptake [13]: Active
- Drug excretion [15]: Active
- logP [22]: -0.77
SMILES: COc1ccc(C2=[N+]3C(=Nc4c(-c5ccccc5)c5c(n4[B-]3(F)F)-c3ccc(OCC(=O)N[C@@H](CC(=O)O)C(=O)O)cc3CC5)C(c3ccccc3)=C2I)cc1
- Activity [1]: 7.3%
- Activity [2]: 20.54%
- Activity [3]: inactive
- viability at 0.05 µM [4]: 41.9%
- Activity [8]: 4.57%
- Activity [9]: 75.41%
- Activity [10]: Active
- Activity [11]: 13.7%
- Activity [12]: Active
- IC50 [14]: 21 nM
- viability at 0.25 µM [16]: 3.76%
- Activity [17]: 2.67%
- Activity [18]: Active
- Activity [19]: 2.93%
- Activity [20]: Active
- Activity [21]: Active
- IC50 [23]: > 250000 nM
- viability at 0.01 µM [24]: 88.9%
- Activity [25]: 8.11%
- Activity [26]: 53.15%
